Results taken from PMC12446422, “Breastfeeding on ART and a closer look at drug transfer to HIV-exposed uninfected infants” (Scientific Reports, 2025).
Values joined by “and” are separate entries in the source; they are usually repeats but may differ in a detail not shown here. Equal values may be shown once. “Also recorded” adds a separate entry of the source.

Key:
HEU breastfed infants = test: Absolute neutrophil count of ART-exposed HEU breastfed infants; assay type: in vivo, human
Method: (§1) For all HIV-exposed children visits, clinical examinations and blood sampling took place at the age of one, four and 18 to 24 months. […] Routine blood tests included blood cell counts with differentials, transaminases, bilirubin at the first presentation, HIV-PCR and at 18–24 months or after cessation of breastfeeding HIV serology was performed. Primary outcome was infant serum drug exposure; breast-milk concentrations served as supportive secondary data. Serum samples of mothers and infants were drawn during visits to our clinic. Neither the timing of maternal drug intake and breastfeeding, nor the timing of the blood samples, was standardized. Therefore, no pharmacokinetic calculations could be performed. When available, additional serum samples of infants or mothers and a breast milk sample were sent to the Drug monitoring laboratory, Division of Infectious Diseases, Department of Internal Medicine II, University of Würzburg Medical Center, Germany. […] To assess the infant’s ART drug exposure upon breastfeeding, we calculated the relative infant dose (RID). The RID is a commonly used tool for assessing drug exposure and is calculated by dividing the infant’s ART level by the mother’s ART level, expressed as a decimal or percentage[13],[14]. All information for this study was derived from routine clinical exams and was, when available, retrospectively extracted from the patients’ medical records. […] For analysis, the HEU children were divided in 2 groups: HEU breastfed infants (n = 8) and HEU formula-fed infants (n = 62). […] All research was performed in accordance with relevant guidelines and regulations. Data collection and analysis were carried out in Microsoft Excel and R.
ART serum levels above a 10% RID of the adult target range and neutropenia <1,0 (1000/µl) are indicated in bold.

[1] = ART drug monitoring in breast milk (HPLC-UV); assay type: in vivo, human; conditions: oral, read-out: ART level in breast milk (BM); for concentration at 6 months (infant age): human one
Method: (§2) HIV-exposed infants were followed at the Pediatric Infectious Diseases Outpatient Clinic at the Department of General Pediatrics according to the current German and European guidelines for HIV-exposed or infected children[6],[11]. MLWH were followed at the department of Infection Medicine, Medical Service Centre Clotten, Freiburg. […] Two mothers (infants 2 and 4) were treated with dolutegravir 50 mg (DTG), abacavir 600 mg (ABC), and lamivudine 300 mg (3TC) once daily. The […] of infant 3 received tenofovir alafenamide/emtricitabine 25/200 mg (TAF/FTC) once daily in combination with nevirapine 200 mg (NVP) twice daily.
as §1

[2] = ART drug monitoring in maternal serum (HPLC-UV); assay type: in vivo, human; conditions: for Maternal serum level, in words: against adult target range
Method: as §2, §1

[3] = Relative infant dose (RID): infant ART level divided by mother's ART level; assay type: in vivo, human; conditions: for < 10% RID: target RID expressed as infant serum level
Method: as §1
The RID is used for clinical risk assessment, with a target RID of below 10% indicating a low risk of adverse drug reactions in infants[16],[17].

[4] = statement in discussion; cited from earlier work
[5] = ART drug monitoring in serum of breastfed HEU infants (HPLC-UV); assay type: in vivo, human; conditions: for Infant serum level, in words: breastfed infants, against detection limit or adult target range; for concentration at 14 days (infant age) / concentration at 4 months (infant age) / concentration at 1 month (infant age) / concentration at 6 months (infant age): human; for concentration at 6 months (infant age): 6 months of age, breastfeeding exclusive, partial or stopped
Method: as §2, §1

[6] = statement in discussion; cited from earlier work; remark: listed apart in the source
[7] = target range for drug trough levels in adults; cited from earlier work
[8] = 14 days, breastfed infant exposed to maternal ART, ZDV prophylaxis given
[9] = all occasions, infant serum below detection, infant 4 (DTG), 8 (RAL), 5 (DRV/r), 7 (RPV)
[10] = child, infant 1 (RPV), infant 3 (nevirapine), infant 2 (DTG)
[11] = serum, other: breastfeeding (maternal ART), breastfed infant (entry one), read-out: ART level in infant serum (IS)
[12] = serum, other: breastfeeding (maternal ART), read-out: ART level in infant serum (IS)

SMILES	concentration at 6 months (infant age) [1]	concentration at 1 month (infant age) ([1]; human three)	< 10% RID [3]	RID (relative infant dose) [3, 9]	RID (relative infant dose) [3, 10]	concentration at 1 month (infant age) [5, 11]	concentration at 6 months (infant age) [5, 12]	Neutro_abs (absolute neutrophil count) (HEU breastfed infants; 1 month)	Neutro_abs (absolute neutrophil count) (HEU breastfed infants; 4 months)	Neutro_abs (absolute neutrophil count) (HEU breastfed infants; 6 months)	Neutro_abs (absolute neutrophil count) (HEU breastfed infants; [8])	concentration at 4 months (infant age) ([1]; human two)	Lipophilicity [4]	Infant serum level, in words [5]	Neutro_abs (absolute neutrophil count) (HEU breastfed infants; 18 months)	Maternal serum level, in words [2]	Adult trough level [7]	further results
CC(C)CN(C[C@@H](O)[C@H](Cc1ccccc1)NC(=O)O[C@H]1CO[C@H]2OCC[C@H]21)S(=O)(=O)c1ccc(N)cc1 [DRV, darunavir]	< 250 ng/mL	< 250 ng/mL	< 380 ng/mL					0,69 1000/ µl	0,64 1000/ µl	1,15 1000/ µl	1,16 1000/ µl	< 250 ng/mL	lipophilic	below detectable levels				concentration at 1 month (infant age) ([2]; female, human, in vivo, 1 month of age, read-out: ART level in maternal serum (MS)): 3800 ng/mL; concentration at 4 months (infant age) ([2]; female, human, in vivo, 4 months of age, read-out: ART level in maternal serum (MS)): 4130 ng/mL; concentration at 6 months (infant age) ([2]; female, human, in vivo, 6 months of age, read-out: ART level in maternal serum (MS)): 3360 ng/mL; concentration at 14 days (infant age) ([5]; in vivo, breastfed infant (entry one), read-out: ART level in infant serum (IS)): < 50 ng/mL; concentration at 4 months (infant age) ([5]; in vivo, breastfed infant (entry three), read-out: ART level in infant serum (IS)): < 50 ng/mL; Plasma protein binding [6]: high
Cc1nnc(C(=O)NC(C)(C)c2nc(C(=O)NCc3ccc(F)cc3)c(O)c(=O)n2C)o1 [RAL, raltegravir]			< 55 ng/mL					1,32 1000/ µl			2,74 1000/ µl		moderately lipophilic	below the detectable range	3,35 1000/ µl			concentration at 1 month (infant age) ([1]; female, human, 1 month of age): 293 ng/mL; concentration at 4 months (infant age) ([1]; female, human, 4 months of age): 168 ng/mL; concentration at 14 days (infant age) ([1]; female, human, 14 days of age): 1760 ng/mL; concentration at 1 month (infant age) ([2]; female, human, in vivo): 872 ng/mL; concentration at 4 months (infant age) ([2]; female, human, in vivo): 184 ng/mL; concentration at 14 days (infant age) ([2]; female, human, serum, oral, 14 days of age, timing of intake and sampling not standardized, read-out: ART level in maternal serum (MS)): < 75 ng/mL; concentration at 1 month (infant age) ([5]; in vivo): < 75 ng/mL; concentration at 4 months (infant age) ([5]; in vivo): < 75 ng/mL; concentration at 14 days (infant age) ([5]; in vivo): < 75 ng/mL
Cc1cc(/C=C/C#N)cc(C)c1Nc1ccnc(Nc2ccc(C#N)cc2)n1 [RPV, rilpivirine]	< 50 ng/mL	< 50 ng/mL	< 20 ng/mL	< 10%	633%		< 50 ng/mL		1,80 1000/ µl and 1,15 1000/ µl and 1,05 1000/ µl		2,25 1000/ µl and 2,27 1000/ µl		highly lipophilic	below the detectable range; also recorded: below the range of detection; also recorded: above the adult target range	1,77 1000/ µl and 1,65 1000/ µl and 1,39 1000/ µl	above the adult target range; also recorded: well above the adult therapeutic range	50 to 200 ng/mL	

Further lines, with some results ahead:

concentration at 6 months (infant age) [1]	concentration at 1 month (infant age) ([1]; human three)	< 10% RID [3]	RID (relative infant dose) [3, 9]	RID (relative infant dose) [3, 10]	concentration at 1 month (infant age) [5, 11]	concentration at 6 months (infant age) [5, 12]	SMILES	Neutro_abs (absolute neutrophil count) (HEU breastfed infants; 1 month)	Neutro_abs (absolute neutrophil count) (HEU breastfed infants; 4 months)	Neutro_abs (absolute neutrophil count) (HEU breastfed infants; 6 months)	Neutro_abs (absolute neutrophil count) (HEU breastfed infants; [8])	concentration at 4 months (infant age) ([1]; human two)	Lipophilicity [4]	Infant serum level, in words [5]	Neutro_abs (absolute neutrophil count) (HEU breastfed infants; 18 months)	Maternal serum level, in words [2]	Adult trough level [7]	further results
680 ng/mL	< 50 ng/mL	< 400 ng/mL	< 10%	240%	< 50 ng/mL		C[C@@H]1CCO[C@H]2Cn3cc(C(=O)NCc4ccc(F)cc4F)c(=O)c(O)c3C(=O)N12 [DTG, dolutegravir]				3,53 1000/ µl	648 ng/mL	moderately lipophilic		3,25 1000/ µl	within the therapeutic range	250 to 4000 ng/mL	concentration at 4 months (infant age) ([2]; human two, serum, oral, read-out: ART level in maternal serum (MS)): 2410 ng/mL
		< 670 ng/mL		171%	1210 ng/mL	649 ng/mL	Cc1ccnc2c1NC(=O)c1cccnc1N2C1CC1 [NVP, nevirapine]	1,53 1000/ µl	1,20 1000/ µl	3,33 1000/ µl			highly lipophilic		1,32 1000/ µl		1600 to 6700 ng/mL	concentration at 6 months (infant age) ([2]; human one, serum, oral, read-out: ART level in maternal serum (MS)): 3930 ng/mL; concentration at 4 months (infant age) ([5]; serum, other: breastfeeding (maternal ART), breastfed infant (entry two), read-out: ART level in infant serum (IS)): 1150 ng/mL
